# Reference: ChEMBL document CHEMBL1201862, “PubChem BioAssay data set” (2004)
#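 Step 1: Grow cells in 96-well plates. Step 2: Expose to compound for 48 hours at 5 concentrations. Step 3: Interpolate endpoints linearly; if unreached, use highest concentration. At the GI50, growth is halved.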 Active and inactive are the calls of the source. Rule as the data show it: active = GI50 up to about 1.1 µM and inactive = higher.
# What was measured:
# Assay in all cases: DTP human tumour cell line panel, 48 h
# SN12C = system: SN12C
# SK-MEL-28 = system: SK-MEL-28
# NCI-H460 = system: NCI-H460
# UO-31 = system: UO-31
# LOX IMVI = system: LOX IMVI
# Hs-578T = system: Hs-578T
# U-251 = system: U-251
# HCT-15 = system: HCT-15
# RXF 393 = system: RXF 393
# TK-10 = system: TK-10
# 786-0 = system: 786-0
# SW-620 = system: SW-620
# IGROV-1 = system: IGROV-1
# HL-60 = system: HL-60
# M14 = system: M14
# A549 = system: A549
# HOP-92 = system: HOP-92
# SK-MEL-5 = system: SK-MEL-5
# CCRF-CEM = system: CCRF-CEM
# HT-29 = system: HT-29
# MOLT-4 = system: MOLT-4
# DU-145 = system: DU-145
# OVCAR-4 = system: OVCAR-4
# ACHN = system: ACHN
# NCI/ADR-RES = system: NCI/ADR-RES
# UACC-257 = system: UACC-257
# PC-3 = system: PC-3
# SF-539 = system: SF-539
# MDA-MB-231 = system: MDA-MB-231
# UACC-62 = system: UACC-62
# SK-MEL-2 = system: SK-MEL-2
# OVCAR-5 = system: OVCAR-5
# HOP-62 = system: HOP-62
# SF-268 = system: SF-268
# OVCAR-3 = system: OVCAR-3
# MDA-MB-435 = system: MDA-MB-435
# NCI-H522 = system: NCI-H522
# EKVX = system: EKVX
# K562 = system: K562
# SF-295 = system: SF-295
# SNB-75 = system: SNB-75
# NCI-H226 = system: NCI-H226
# T47D = system: T47D
# MCF7 = system: MCF7
# KM12 = system: KM12
# OVCAR-8 = system: OVCAR-8
# SNB-19 = system: SNB-19
# COLO 205 = system: COLO 205
# SK-OV-3 = system: SK-OV-3
# HCT-116 = system: HCT-116
# SR = system: SR
# NCI-H23 = system: NCI-H23
# Malme-3M = system: Malme-3M
# BT-549 = system: BT-549
# CAKI-1 = system: CAKI-1
# HCC 2998 = system: HCC 2998
# RPMI-8226 = system: RPMI-8226
# MDA-N = system: MDA-N
smiles,measurement,setting,value
O=C(CSCC(=O)N/N=C\c1cc(Cl)cc(Cl)c1O)N/N=C\c1cc(Cl)cc(Cl)c1O,GI50,SN12C,4.33 µM (inactive)
same,GI50,SK-MEL-28,5.21 µM (inactive)
same,GI50,NCI-H460,14.9 µM (inactive)
same,GI50,UO-31,4 µM (inactive)
same,GI50,LOX IMVI,1.38 µM (inactive)
same,GI50,Hs-578T,2.08 µM (inactive)
same,GI50,U-251,0.515 µM (active)
same,GI50,HCT-15,2.99 µM
same,GI50,RXF 393,20.5 µM (inactive)
same,GI50,TK-10,3.63 µM (inactive)
same,GI50,786-0,6.46 µM (inactive)
same,GI50,SW-620,3.79 µM (inactive)
same,GI50,IGROV-1,3.37 µM (inactive)
same,GI50,HL-60,2.75 µM (inactive)
same,GI50,M14,4.93 µM (inactive)
same,GI50,A549,18.7 µM (inactive)
same,GI50,HOP-92,5.73 µM (inactive)
same,GI50,SK-MEL-5,3.42 µM (inactive)
same,GI50,CCRF-CEM,0.294 µM (active)
same,GI50,HT-29,10.5 µM (inactive)
same,GI50,MOLT-4,1.63 µM (inactive)
same,GI50,DU-145,8.91 µM (inactive)
same,GI50,OVCAR-4,2.42 µM (inactive)
same,GI50,ACHN,0.204 µM (active)
same,GI50,NCI/ADR-RES,2.96 µM (inactive)
same,GI50,UACC-257,5.28 µM (inactive)
same,GI50,PC-3,4.27 µM (inactive)
same,GI50,SF-539,2.58 µM (inactive)
same,GI50,MDA-MB-231,2.48 µM (inactive)
same,GI50,UACC-62,3.64 µM (inactive)
same,GI50,SK-MEL-2,2.51 µM (inactive)
same,GI50,OVCAR-5,10.4 µM (inactive)
same,GI50,HOP-62,5.69 µM (inactive)
same,GI50,SF-268,2.32 µM (inactive)
same,GI50,OVCAR-3,1.69 µM (inactive)
same,GI50,MDA-MB-435,8.04 µM (inactive)
same,GI50,NCI-H522,1.71 µM (inactive)
same,GI50,EKVX,4.45 µM (inactive)
same,GI50,K562,2.37 µM (inactive)
same,GI50,SF-295,6.53 µM (inactive)
same,GI50,SNB-75,12.4 µM (inactive)
same,GI50,NCI-H226,3.62 µM (inactive)
same,GI50,T47D,3.08 µM (inactive)
same,GI50,MCF7,7.29 µM (inactive)
same,GI50,KM12,6.1 µM (inactive)
same,GI50,OVCAR-8,2.1 µM (inactive)
same,GI50,SNB-19,16.7 µM (inactive)
same,GI50,COLO 205,6.1 µM (inactive)
same,GI50,SK-OV-3,8.55 µM (inactive)
same,GI50,HCT-116,2.9 µM (inactive)
same,GI50,SR,1.77 µM (inactive)
same,GI50,NCI-H23,10.1 µM (inactive)
same,GI50,Malme-3M,1.87 µM (inactive)
same,GI50,BT-549,4.81 µM (inactive)
same,GI50,CAKI-1,3.48 µM (inactive)
CNC(=O)N(CCC#N)[C@H]1CCCC[C@@H]1N(C(=O)NC)c1ccccc1,GI50,SN12C,> 100 µM (inactive)
same,GI50,SK-MEL-28,> 100 µM (inactive)
same,GI50,NCI-H460,> 100 µM (inactive)
same,GI50,UO-31,> 100 µM (inactive)
same,GI50,LOX IMVI,> 100 µM (inactive)
same,GI50,U-251,> 100 µM (inactive)
same,GI50,HCT-15,> 100 µM
same,GI50,RXF 393,> 100 µM (inactive)
same,GI50,TK-10,> 100 µM (inactive)
same,GI50,786-0,> 100 µM (inactive)
same,GI50,SW-620,> 100 µM (inactive)
same,GI50,IGROV-1,> 100 µM (inactive)
same,GI50,M14,> 100 µM (inactive)
same,GI50,A549,> 100 µM (inactive)
same,GI50,HOP-92,> 100 µM (inactive)
same,GI50,SK-MEL-5,> 100 µM (inactive)
same,GI50,HCC 2998,> 100 µM (inactive)
same,GI50,CCRF-CEM,> 100 µM (inactive)
same,GI50,HT-29,> 100 µM (inactive)
same,GI50,MOLT-4,> 100 µM (inactive)
same,GI50,DU-145,> 100 µM (inactive)
same,GI50,OVCAR-4,> 100 µM (inactive)
same,GI50,ACHN,> 100 µM (inactive)
same,GI50,NCI/ADR-RES,> 100 µM (inactive)
same,GI50,UACC-257,> 100 µM (inactive)
same,GI50,PC-3,> 100 µM (inactive)
same,GI50,SF-539,> 100 µM (inactive)
same,GI50,MDA-MB-231,> 100 µM (inactive)
same,GI50,UACC-62,> 100 µM (inactive)
same,GI50,SK-MEL-2,> 100 µM (inactive)
same,GI50,OVCAR-5,> 100 µM (inactive)
same,GI50,HOP-62,> 100 µM (inactive)
same,GI50,OVCAR-3,> 100 µM (inactive)
same,GI50,MDA-MB-435,> 100 µM (inactive)
same,GI50,NCI-H522,> 100 µM (inactive)
same,GI50,EKVX,> 100 µM (inactive)
same,GI50,K562,> 100 µM (inactive)
same,GI50,SF-295,> 100 µM (inactive)
same,GI50,SNB-75,> 100 µM (inactive)
same,GI50,NCI-H226,> 100 µM (inactive)
same,GI50,T47D,> 100 µM (inactive)
same,GI50,MCF7,> 100 µM (inactive)
same,GI50,KM12,> 100 µM (inactive)
same,GI50,OVCAR-8,> 100 µM (inactive)
same,GI50,SNB-19,> 100 µM (inactive)
same,GI50,RPMI-8226,> 100 µM (inactive)
same,GI50,COLO 205,> 100 µM (inactive)
same,GI50,SK-OV-3,> 100 µM (inactive)
same,GI50,HCT-116,> 100 µM (inactive)
same,GI50,SR,> 100 µM (inactive)
same,GI50,NCI-H23,> 100 µM (inactive)
same,GI50,Malme-3M,> 100 µM (inactive)
same,GI50,MDA-N,> 100 µM (inactive)
same,GI50,BT-549,> 100 µM (inactive)
same,GI50,CAKI-1,> 100 µM (inactive)
